This is an account of results in patent publication US20230278983A1, “INDOLE DERIVATIVES AND USES THEREOF FOR TREATING A CANCER” (Universite Claude Bernard Lyon 1, priority 2020, published 2023).

Read-outs that look alike come from different tables or passages of the source.

For one assay, the system named is 786-O cells. Put plainly: Cell death, IncuCyte propidium iodide live-cell imaging. In kind it is cell-based, human.
A further assay has as its system MDA-MB231 cells. The description is as above. It counts as cell-based, human. The settings on record: 48 hours, increasing concentrations.
In another assay the test system is A549 and MDA-MB231 cells. Put plainly: Immunoblotting of CK2-dependent substrate phosphorylation and apoptosis markers. In kind it is cell-based, human. The note with it: A549 24 hours, MDA-MB231 48 hours. Background: In western blotting, separated proteins are transferred to a membrane and probed.
In assay [1] the test system is MCF10-A cells (WT and CK2β-depleted). The assay is described as follows: Cell death, IncuCyte propidium iodide live-cell imaging. It counts as cell-based. The note with it: n=5.
For the next assay, the system named is RPTEC cells. The assay is described as above. In kind it is cell-based. The note with it: 48 hours, 1 μM AB668 with 5 μM tariquidar (n=5).
In another assay the test system is 786-O and RPTEC cells. Put plainly: Immunoblotting of CK2-dependent substrate phosphorylation and apoptosis markers. It counts as cell-based. The settings on record: 48 hours or 24 hours, increasing concentrations.
The next assay deals with CK2 (Homo sapiens (Human), UniProt P68400). The assay is described as follows: Radiometric CK2 kinase assay. In kind it is biochemical. The settings on record: for inhibition at 0.1 µM: compound at 0.10 μM; for inhibition at 1 µM: compound at 1 μM.
Where [2] appears, read: inhibition of CK2 activity, ATP 10 μM.

Chain of CK2 (P68400 whole entry): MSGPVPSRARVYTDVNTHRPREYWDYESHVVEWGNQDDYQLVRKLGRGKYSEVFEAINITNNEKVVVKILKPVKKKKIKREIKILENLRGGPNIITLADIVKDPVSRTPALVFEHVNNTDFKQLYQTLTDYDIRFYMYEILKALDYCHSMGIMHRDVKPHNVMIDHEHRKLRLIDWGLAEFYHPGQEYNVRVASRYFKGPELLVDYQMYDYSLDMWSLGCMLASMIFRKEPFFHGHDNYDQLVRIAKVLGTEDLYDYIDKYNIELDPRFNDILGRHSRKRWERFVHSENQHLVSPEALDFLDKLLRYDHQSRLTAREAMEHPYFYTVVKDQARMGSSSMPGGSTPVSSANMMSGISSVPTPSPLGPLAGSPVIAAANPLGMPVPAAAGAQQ

On to `CC(C)COC(=O)c1[nH]c2ccc(F)cc2c1-c1cn(CC2CCN(CCNS(=O)(=O)c3ccc(CC(C)C)cc3)CC2)nn1` [AB668, Isobutyl 5-fluoro-3-(1-((1-(2-((4-isobutylphenyl)sulfonamido)ethyl)piperidin-4-yl)methyl)-1H-1,2,3-triazol-4-yl)-1H-indole-2-carboxylate], for which the “Cell death induction in RCC lines compared to normal cells” value in the assay with 786-O cells (24 hours, 786-O (VHL+/−) at 1 μM, RPTEC at 10 μM (n=5)) was “much more efficient in inducing cell death in RCC lines”. In addition, the “Sensitivity to compound-mediated cell death, 786-O versus RPTEC or HEK 293” value in the assay on 786-O cells (36 hours, increasing concentrations (n=4 to 6)) was “much more sensitive”. Further, the “Cell death induction compared to CX-4945 and sunitinib” value in the assay with 786-O cells (at 5 and 2.5 μM) is listed as “much more efficient in inducing cell death”. Further, the “Sensitivity to compound-mediated cell death, MDA-MB231 versus normal MCF10A” value in the assay with MDA-MB231 cells was “much more sensitive”. Besides, the “CK2-dependent substrate phosphorylation and apoptosis (western blot)” value in the assay with A549 and MDA-MB231 cells was “inhibit CK2-dependent substrate phosphorylation and induce apoptosis in different cancer cell lines”; in the assay on 786-O and RPTEC cells, “inhibit CK2-dependent substrate phosphorylation in cells and induce apoptosis”. In assay [1], the “Cell death in CK2β-depleted versus WT cells” value is reported as “more pronounced in CK2β-depleted cells than in WT cells”. For the same molecule, in the assay on RPTEC cells, the “Effect of P-glycoprotein inhibitor tariquidar on compound effect” value is on record as “has not changed the effect of AB668”.
What is called IC50 is the point on the concentration scale where inhibition reaches its midpoint. The low end stands for inhibition by little substance, the high end for a need for much substance. `CCOC(=O)c1[nH]c2ccc(F)cc2c1-c1cn(CC2CCN(CCNS(=O)(=O)c3ccc(C(C)C)cc3)CC2)nn1` [AB579, Ethyl 5-fluoro-3-(1-((1-(2-((4-isopropylphenyl)sulfonamido)ethyl)piperidin-4-yl)methyl)-1H-1,2,3-triazol-4-yl)-1H-indole-2-carboxylate] registered an IC50 against CK2 of 430 nM.
On to `CC(C)COC(=O)c1[nH]c2ccc(F)cc2c1-c1cn(CC2CCN(CCNS(=O)(=O)c3ccc(OC(C)C)cc3)CC2)nn1` [AB917, isobutyl 5-fluoro-3-(1-((1-(2-((4-isopropoxyphenyl)sulfonamido)ethyl)piperidin-4-yl)methyl)-1H-1,2,3-triazol-4-yl)-1H-indole-2-carboxylate], for which it took 600 nM to reach half-maximal inhibition at CK2 (IC50).
With `CCOC(=O)c1[nH]c2cc(Cl)ccc2c1-c1cn(CC2CCN(CCNS(=O)(=O)c3ccc(Cl)cc3)CC2)nn1` [AB433, Ethyl 6-chloro-3-(1-((1-(2-((4-chlorophenyl)sulfonamido)ethyl)piperidin-4-yl)methyl)-1H-1,2,3-triazol-4-yl)-1H-indole-2-carboxylate], the concentration for half-maximal inhibition (IC50) at CK2 was 8100 nM.
With `CC(C)COC(=O)c1[nH]c2ccc(F)cc2c1-c1cn(CC2CCN(CCNS(=O)(=O)c3ccc(C4=CCOCC4)cc3)CC2)nn1` [AB1074, isobutyl 3-(1-((1-(2-((4-(3,6-dihydro-2H-pyran-4-yl)phenyl)sulfonamido)ethyl)piperidin-4-yl)methyl)-1H-1,2,3-triazol-4-yl)-5-fluoro-1H-indole-2-carboxylate], the half-maximal inhibitory concentration (IC50) against CK2 stood at 69 nM.
What is called inhibition is the percentage by which the read-out fell short of the control. A lower inhibition goes with a weak effect. In the case of `CC(=O)c1[nH]c2ccc(F)cc2c1-c1cn(CC2CCN(CCNS(=O)(=O)N3CCC(c4cccnc4F)CC3)CC2)nn1` [AB1322, N-(2-(4-((4-(2-acetyl-5-fluoro-1H-indol-3-yl)-1H-1,2,3-triazol-1-yl)methyl)piperidin-1-yl)ethyl)-4-(2-fluoropyridin-3-yl)piperidine-1-sulfonamide], the inhibition at 0.1 µM on CK2 (ATP 10 μM) was 10%.
`CCOC(=O)c1[nH]c2ccc(Cl)cc2c1-c1cn(CC2CCN(CCNS(=O)(=O)c3ccc(C(C)C)cc3)CC2)nn1` [AB582, Ethyl 5-chloro-3-(1-((1-(2-((4-isopropylphenyl)sulfonamido)ethyl)piperidin-4-yl)methyl)-1H-1,2,3-triazol-4-yl)-1H-indole-2-carboxylate]: it took 1250 nM to reach half-maximal inhibition at CK2 (IC50).
Molecule `CCOC(=O)c1[nH]c2ccc(F)cc2c1-c1cn(CC2CCN(CCNS(=O)(=O)c3ccc(CC)cc3)CC2)nn1` [AB526, Ethyl 3-(1-((1-(2-((4-ethylphenyl)sulfonamido)ethyl)piperidin-4-yl)methyl)-1H-1,2,3-triazol-4-yl)-5-fluoro-1H-indole-2-carboxylate] displayed an IC50 on CK2 of 300 nM. Moreover, at CK2 (Lineweaver-Burk analysis (n=2)), the “Mechanism of CK2 inhibition with respect to ATP” value is listed as “non-ATP competitive mechanism of CK2 inhibition” and the “Mechanism of inhibition towards CK2β” value is on record as “mixed competitive inhibition towards CK2β”. Moreover, the “Sensitivity to compound-mediated cell death, MDA-MB231 versus normal MCF10A” value in the assay on MDA-MB231 cells is on record as “much more sensitive”. In addition, the “CK2-dependent substrate phosphorylation and apoptosis (western blot)” value with A549 and MDA-MB231 cells was “inhibit CK2-dependent substrate phosphorylation and induce apoptosis in different cancer cell lines”. Moreover, in the assay on 786-O and RPTEC cells, the “CK2-dependent substrate phosphorylation and apoptosis (western blot)” value was “inhibit CK2-dependent substrate phosphorylation in cells and induce apoptosis”.
`CC(C)COC(=O)c1[nH]c2ccc(F)cc2c1-c1cn(CC2CCN(CCNS(=O)(=O)c3ccc(-c4cccnc4Cl)cc3)CC2)nn1` [AB1133, isobutyl 3-(1-((1-(2-((4-(2-chloropyridin-3-yl)phenyl)sulfonamido)ethyl)piperidin-4-yl)methyl)-1H-1,2,3-triazol-4-yl)-5-fluoro-1H-indole-2-carboxylate] displayed an IC50 on CK2 of 26 nM.
`CC(=O)c1[nH]c2ccc(F)cc2c1-c1cn(CC2CCN(CCNS(=O)(=O)c3ccc(-c4ccccc4C(F)(F)F)cc3)CC2)nn1` [AB1394, N-(2-(4-((4-(2-acetyl-5-fluoro-1H-indol-3-yl)-1H-1,2,3-triazol-1-yl)methyl)piperidin-1-yl)ethyl)-2′-(trifluoromethyl)-[1,1′-biphenyl]-4-sulfonamide] yielded an IC50 on CK2 of 23 nM.
In the case of `CC(C)COC(=O)c1[nH]c2ccc(F)cc2c1-c1cn(CC2CCN(CCNS(=O)(=O)N3CCC(Cc4ccccc4)CC3)CC2)nn1` [AB918, isobutyl 3-(1-((1-(2-((4-benzylpiperidine)-1-sulfonamido)ethyl)piperidin-4-yl)methyl)-1H-1,2,3-triazol-4-yl)-5-fluoro-1H-indole-2-carboxylate], the 50% inhibitory concentration (IC50) against CK2 (setting [2]) was 400 nM.
`CCOC(=O)c1[nH]c2ccc(F)cc2c1-c1cn(CC2CCN(CCNS(=O)(=O)c3ccc(Cl)cc3)CC2)nn1` [AB401, Ethyl 3-(1-((1-(2-((4-chlorophenyl)sulfonamido)ethyl)piperidin-4-yl)methyl)-1H-1,2,3-triazol-4-yl)-5-fluoro-1H-indole-2-carboxylate]: the half-maximal inhibitory concentration (IC50) on CK2 was determined as 980 nM.
On CK2, `CC(C)COC(=O)c1[nH]c2ccc(Cl)cc2c1-c1cn(CC2CCN(CCNS(=O)(=O)c3ccc(C(F)(F)F)cc3)CC2)nn1` [AB601, Isobutyl 5-chloro-3-(1-((1-(2-((4-(trifluoromethyl)phenyl)sulfonamido)ethyl)piperidin-4-yl)methyl)-1H-1,2,3-triazol-4-yl)-1H-indole-2-carboxylate] yielded an IC50 of 1400 nM.
For `CC(=O)c1[nH]c2ccc(F)cc2c1-c1cn(CC2CCN(CCNS(=O)(=O)c3ccc(-c4ccccc4O)cc3)CC2)nn1` [AB1450, N-(2-(4-((4-(2-acetyl-5-fluoro-1H-indol-3-yl)-1H-1,2,3-triazol-1-yl)methyl)piperidin-1-yl)ethyl)-2′-hydroxy-[1,1′-biphenyl]-4-sulfonamide], the IC50 at CK2 is 49 nM.
For the molecule `CC(C)COC(=O)c1[nH]c2ccc(F)cc2c1-c1cn(CC2CCN(Cc3ccc(-c4cccc5[nH]ccc45)c(C(C)C)c3)CC2)nn1` [AB703, Isobutyl 3-(1-((1-(4-(1H-indol-4-yl)-3-isopropylbenzyl)piperidin-4-yl)methyl)-1H-1,2,3-triazol-4-yl)-5-fluoro-1H-indole-2-carboxylate], the inhibition at 1 µM on CK2 (ATP 10 μM) stood at 8%.
`CC(C)CCOC(=O)c1[nH]c2ccc(F)cc2c1-c1cn(CC2CCN(CCNS(=O)(=O)c3ccc(C(C)C)cc3)CC2)nn1` [AB664, Isopentyl 5-fluoro-3-(1-((1-(2-((4-isopropylphenyl)sulfonamido)ethyl)piperidin-4-yl)methyl)-1H-1,2,3-triazol-4-yl)-1H-indole-2-carboxylate] came in with an inhibition at 1 µM at CK2 (ATP 10 μM) of 15%.
The molecule `Cc1ccc(CS(=O)(=O)NCCN2CCC(Cn3cc(-c4c(C(=O)OCC(C)C)[nH]c5ccc(F)cc45)nn3)CC2)cc1` [AB1210, isobutyl 5-fluoro-3-(1-((1-(2-((p-tolylmethyl)sulfonamido)ethyl)piperidin-4-yl)methyl)-1H-1,2,3-triazol-4-yl)-1H-indole-2-carboxylate] gave an IC50 against CK2 (setting [2]) of 85 nM.
Take `CC(C)Cc1ccc(S(=O)(=O)NCCN2CCC(Cn3cc(-c4c(C(=O)N5CCOCC5)[nH]c5ccc(F)cc45)nn3)CC2)cc1` [AB1132, N-(2-(4-((4-(5-fluoro-2-(morpholine-4-carbonyl)-1H-indol-3-yl)-1H-1,2,3-triazol-1-yl)methyl)piperidin-1-yl)ethyl)-4-isobutylbenzenesulfonamide]: on CK2 (ATP 10 μM), 0.1 µM produced 4% inhibition.
`CC(C)COC(=O)c1[nH]c2ccc(F)cc2c1-c1cn(CC2CCN(CCNS(=O)(=O)c3ccc4c(c3)CCO4)CC2)nn1` [AB930, isobutyl 3-(1-((1-(2-((2,3-dihydrobenzofuran)-5-sulfonamido)ethyl)piperidin-4-yl)methyl)-1H-1,2,3-triazol-4-yl)-5-fluoro-1H-indole-2-carboxylate] showed an inhibition at 1 µM at CK2 (ATP 10 μM) of 45%.
